Earlier results in patent publication US10952984B2, “All-trans retinoic acid injectant and application” (HIGHFIELD BIOPHARMACEUTICAL CORPORATION, priority 2016, dated 2021).
≈ marks a conversion by molar mass, not a printed value.

Experiments:
[1] = not given; remark: listed apart in the source

bioavailability (oral dosage forms, clinical studies): ≤ 30%
plasma half-life (prior art): short
water solubility [1]: 4.77 µg/mL (≈ 15.9 µM)
solubility of the all-trans retinoic acid in the prior art ([1]; prior art): 10 µg/mL
SMILES: CC1=C(/C=C/C(C)=C/C=C/C(C)=C/C(=O)O)C(C)(C)CCC1 [all-trans retinoic acid]
